46 molecules from patent publication US20100249093A1, “Substituted Heteroarylpiperidine Derivatives As Melanocortin-4 Receptor Modulators” (SANTHERA PHARMACEUTICALS (SCHWEIZ) AG, priority 2007, published 2010) can be followed below.

Test [1] concerns the target T1, human melanocortin-4 receptor (MC-4R) (Homo sapiens, UniProt P32245).
T1 construct: expressed in transfected cells; host or cells: HEK293
The test can be described thus: Membrane binding assay: competition with fluorescence labeled NDP-alpha-MSH, fluorescence polarization. As to conditions: HEK293 cell membrane preparations expressing human MC-4R, read-out: hMC-4R binding assay IC50. For orientation: Fluorescence polarisation rises when a labelled molecule tumbles more slowly, as on binding a larger partner.

Test [2] has as its target T1, human melanocortin-4 receptor (MC-4R). The test can be described thus: Functional assay: agonistic activity, cAMP production in membrane preparations compared with NDP-alpha-MSH, fluorescence polarization. The format is biochemical. As to conditions: for Emax: cAMP produced compared to stimulation with NDP-alpha-MSH, read-out: % activation functional assay. (cAMP levels reflect the balance of adenylyl cyclase and phosphodiesterase activity.)

T1 sequence (P32245 whole entry): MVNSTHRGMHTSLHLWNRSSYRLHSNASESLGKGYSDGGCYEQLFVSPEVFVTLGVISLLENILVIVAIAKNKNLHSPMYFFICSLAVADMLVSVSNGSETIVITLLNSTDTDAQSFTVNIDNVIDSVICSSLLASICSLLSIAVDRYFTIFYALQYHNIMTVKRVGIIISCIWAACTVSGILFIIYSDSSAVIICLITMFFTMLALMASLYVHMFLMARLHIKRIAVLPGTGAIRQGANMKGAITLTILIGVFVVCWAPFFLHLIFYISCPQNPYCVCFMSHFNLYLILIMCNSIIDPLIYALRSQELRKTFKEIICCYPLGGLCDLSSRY

`CC[C@H]1CN(C)CCN1Cc1cccnc1C1CCN(C(=O)[C@@H](Cc2ccc(Cl)cc2Cl)NC(=O)N2CCCC2)CC1` [Example 50]: the IC50 in test [1] was not above 100 nM. Besides, the Emax in test [2] came to 0%.
For `CN1CC[C@H](COc2cccnc2C2CCN(C(=O)[C@@H](Cc3ccc(Cl)cc3Cl)NC(=O)N3CCCC3)CC2)C1` [Example 51], in that order: 100 to 1000 nM and 0%.
As to `CN1CCOC[C@@H](Oc2cccnc2C2CCN(C(=O)[C@@H](Cc3ccc(Cl)cc3Cl)NC(=O)N3CCCC3)CC2)C1` [Example 52], the IC50 in test [1] lay within 100 to 1000 nM. Also, the Emax in test [2] turned out to be 4%.
For `CN1CCO[C@@H](COc2cccnc2C2CCN(C(=O)[C@@H](Cc3ccc(Cl)cc3Cl)NC(=O)N3CCCC3)CC2)C1` [Example 53], in that order: more than 1000 nM and 1%.
Consider `CN1CC[C@@H](COc2cccnc2C2CCN(C(=O)[C@@H](Cc3ccc(Cl)cc3Cl)NC(=O)N3CCCC3)CC2)C1` [Example 54], for which the IC50 in test [1] is 100 to 1000 nM. The Emax in test [2] was determined as 10%.
For `CN1CCOC[C@@H]1COc1cccnc1C1CCN(C(=O)[C@@H](Cc2ccc(Cl)cc2Cl)NC(=O)N2CCCC2)CC1` [Example 55], in that order: 100 to 1000 nM and 2%.
With `CN1CCN(C)CC(Oc2cccnc2C2CCN(C(=O)[C@@H](Cc3ccc(Cl)cc3Cl)NC(=O)N3CCCC3)CC2)C1` [Example 56], the 50% inhibitory concentration (IC50) in test [1] was not above 100 nM. Moreover, the Emax in test [2] is -5%.
For `CN(C)[C@@H]1CCC[C@@H]1Oc1cccnc1C1CCN(C(=O)[C@@H](Cc2ccc(Cl)cc2Cl)NC(=O)N2CCCC2)CC1` [Example 57], in that order: not above 100 nM and 5%.
On the same counts, the results for `CN(C)C[C@@H](Oc1cccnc1C1CCN(C(=O)[C@@H](Cc2ccc(Cl)cc2Cl)NC(=O)N2CCCC2)CC1)C(F)(F)F` [Example 58] are 100 to 1000 nM and 4%.
As to `CN1CCN(Cc2cc(F)cnc2C2CCN(C(=O)[C@@H](Cc3ccc(Cl)cc3Cl)NC(=O)N3CCCC3)CC2)CC1` [Example 59], the IC50 in test [1] is not above 100 nM. Further, the Emax in test [2] is -1%.
`CC[C@H](COc1cc(F)cnc1C1CCN(C(=O)[C@@H](Cc2ccc(Cl)cc2Cl)NC(=O)N2CCCC2)CC1)N(C)C` [Example 60]: the IC50 in test [1] is not above 100 nM. The Emax in test [2] was -12%.
`CC[C@@H](CN(C)C)Oc1cc(F)cnc1C1CCN(C(=O)[C@@H](Cc2ccc(Cl)cc2Cl)NC(=O)N2CCCC2)CC1` [Example 61]: in test [1], the IC50 is not above 100 nM. Besides, in test [2], the Emax turned out to be 1%.
On to `C[C@@H](CCN(C)C)Oc1cccnc1C1CCN(C(=O)[C@@H](Cc2ccc(Cl)cc2Cl)NC(=O)N2CCCC2)CC1` [Example 62], for which the IC50 in test [1] is not above 100 nM. For the same molecule, the Emax in test [2] is -10%.
On the same counts, the results for `CC[C@@H](CN1CCCC1)Oc1nccnc1C1CCN(C(=O)[C@@H](Cc2ccc(Cl)cc2Cl)NC(=O)N2CCCC2)CC1` [Example 63] are not above 100 nM and 0%.
For `CC[C@H](COc1nc(C)ncc1C1CCN(C(=O)[C@@H](Cc2ccc(Cl)cc2Cl)NC(=O)N2CCCC2)CC1)N(C)C` [Example 64], in that order: not above 100 nM and 13%.
On the same counts, the results for `Cc1ccc(C2CCN(C(=O)[C@@H](Cc3ccc(Cl)cc3F)NC(=O)N3CCCC3)CC2)c(N2CCN(C)CC2)n1` [Example 65] are not above 100 nM and 0%.
As for `Cc1ccc(C2CCN(C(=O)[C@@H](Cc3ccc(F)cc3Cl)NC(=O)N3CCCC3)CC2)c(N2CCN(C)CC2)n1` [Example 66], in test [1], the IC50 lay in the range of 100 to 1000 nM. In addition, in test [2], the Emax worked out at 0%.
On to `Cc1ccc(C2CCN(C(=O)[C@@H](Cc3ccc(F)cc3F)NC(=O)N3CCCC3)CC2)c(N2CCN(C)CC2)n1` [Example 67], for which the IC50 in test [1] is more than 1000 nM. In test [2], the Emax stood at 33%. Further, in test [2] (cAMP production, membrane preparations from HEK293 cells expressing human MC-4R, read-out: hMC-4R functional assay EC50), the EC50 is more than 1000 nM.
For `CC[C@H](COc1cccnc1C1CCN(C(=O)[C@@H](Cc2ccc(C)cc2C)NC(=O)N2CCCC2)CC1)N1CCCC1` [Example 70], the IC50 in test [1] is not above 100 nM. In test [2], the Emax was -2%.
For `CC[C@H](COc1cc(Cl)cnc1C1CCN(C(=O)[C@@H](Cc2ccc(C)cc2C)NC(=O)N2CCCC2)CC1)N1CCCC1` [Example 71], in that order: not above 100 nM and -4%.
For `CC[C@H](COc1cc(Cl)cnc1C1CCN(C(=O)[C@@H](Cc2ccc(C)cc2C)NC(=O)N2CCCC2)CC1)N(C)C` [Example 73], in that order: not above 100 nM and -15%.
Regarding `CC[C@H](COc1cc(Cl)cnc1C1CCN(C(=O)[C@@H](Cc2ccc(C)cc2C)NC(=O)N2CC(O)C2)CC1)N(C)C` [Example 74], the IC50 in test [1] was not above 100 nM. In addition, the Emax in test [2] was -5%.
For `CC[C@H](COc1cc(F)cnc1C1CCN(C(=O)[C@@H](Cc2ccc(Cl)cc2Cl)NC(=O)N2CC(O)C2)CC1)N(C)C` [Example 75], in that order: not above 100 nM and -1%.
For `CC[C@H](COc1cccnc1C1CCN(C(=O)[C@@H](Cc2ccc(Cl)cc2Cl)NC(=O)N2CCC2)CC1)N1CCCC1` [Example 76], in that order: not above 100 nM and 0%.
For `CC[C@H](COc1cccnc1C1CCN(C(=O)[C@@H](Cc2ccc(Cl)cc2Cl)NC(=O)N(C)C)CC1)N1CCCC1` [Example 77], the IC50 in test [1] was not above 100 nM. In test [2], the Emax was found to be 0%.
For `CC[C@H](COc1cccnc1C1CCN(C(=O)[C@@H](Cc2ccc(Cl)cc2Cl)NC(=O)N(CC)CC)CC1)N1CCCC1` [Example 78], in that order: not above 100 nM and 0%.
`CC[C@H](COc1cccnc1C1CCN(C(=O)[C@@H](Cc2ccc(Cl)cc2Cl)NC(=O)N(C)CC)CC1)N1CCCC1` [Example 79]: the IC50 in test [1] is not above 100 nM. In addition, the Emax in test [2] turned out to be 0%.
Consider `CC[C@H](COc1cccnc1C1CCN(C(=O)[C@@H](Cc2ccc(Cl)cc2Cl)NC(=O)N2CC[C@@H](O)C2)CC1)N1CCCC1` [Example 80], for which, in test [1], the IC50 is not above 100 nM. Moreover, in test [2], the Emax came to 0%.
For `CC[C@H](COc1cccnc1C1CCN(C(=O)[C@@H](Cc2ccc(Cl)cc2Cl)NC(=O)N2CC[C@@H](F)C2)CC1)N1CCCC1` [Example 81], in that order: not above 100 nM and 0%.
On the same counts, the results for `CC[C@H](COc1cccnc1C1CCN(C(=O)[C@@H](Cc2ccc(Cl)cc2Cl)NC(=O)N2CCC(F)CC2)CC1)N1CCCC1` [Example 82] are not above 100 nM and 0%.
For `CC[C@H](COc1cccnc1C1CCN(C(=O)[C@@H](Cc2ccc(Cl)cc2Cl)NC(=O)N2CCC(F)(F)CC2)CC1)N1CCCC1` [Example 83], in that order: not above 100 nM and 0%.
As to `CC[C@H](COc1cccnc1C1CCN(C(=O)[C@@H](Cc2ccc(Cl)cc2Cl)NC(=O)N2CC(O)C2)CC1)N1CCCC1` [Example 84], the IC50 in test [1] was not above 100 nM. Moreover, the Emax in test [2] was found to be 0%.
For `CC[C@H](COc1cccnc1C1CCN(C(=O)[C@@H](Cc2ccc(Cl)cc2Cl)NC(=O)N(CCOC)CCOC)CC1)N1CCCC1` [Example 85], in that order: not above 100 nM and 0%.
In the case of `CC[C@H](COc1cccnc1C1CCN(C(=O)[C@@H](Cc2ccc(Cl)cc2Cl)NC(=O)N(C)CCO)CC1)N1CCCC1` [Example 86], the IC50 in test [1] is not above 100 nM. The Emax in test [2] came to 0%.
As for `CC[C@H](COc1cccnc1C1CCN(C(=O)[C@@H](Cc2ccc(Cl)cc2Cl)NC(=O)N(C)CCOC)CC1)N1CCCC1` [Example 87], the IC50 in test [1] was not above 100 nM. The Emax in test [2] was 0%.
For `CC[C@H](COc1cccnc1C1CCN(C(=O)[C@@H](Cc2ccc(Cl)cc2Cl)NC(=O)N2CCSC2)CC1)N1CCCC1` [Example 88], in test [1], the IC50 was not above 100 nM. Besides, the Emax in test [2] worked out at 0%.
As for `CC[C@H](COc1cccnc1C1CCN(C(=O)[C@@H](Cc2ccc(Cl)cc2Cl)NC(=O)N2CC[C@H](O)C2)CC1)N1CCCC1` [Example 89], the IC50 in test [1] was not above 100 nM. Moreover, the Emax in test [2] stood at 0%.
For `CC[C@H](COc1cccnc1C1CCN(C(=O)[C@@H](Cc2ccc(Cl)cc2Cl)NC(=O)N2CC[C@H](F)C2)CC1)N1CCCC1` [Example 90], in that order: not above 100 nM and 0%.
On the same counts, the results for `CC[C@H](COc1cccnc1C1CCN(C(=O)[C@@H](Cc2ccc(Cl)cc2Cl)NC(=O)N2CCOCC2)CC1)N1CCCC1` [Example 91] are not above 100 nM and 0%.
Take `CC[C@H](COc1cccnc1C1CCN(C(=O)[C@@H](Cc2ccc(Cl)cc2Cl)NC(=O)N2CCOC[C@@H]2C)CC1)N1CCCC1` [Example 92]: in test [1], the IC50 was not above 100 nM. Moreover, in test [2], the Emax is 0%.
Consider `CC[C@H](COc1cccnc1C1CCN(C(=O)[C@@H](Cc2ccc(Cl)cc2Cl)NC(=O)N2C[C@@H](C)O[C@@H](C)C2)CC1)N1CCCC1` [Example 93], for which, in test [1], the IC50 is not above 100 nM. For the same molecule, in test [2], the Emax amounted to 0%.
For `CC[C@H](COc1cccnc1C1CCN(C(=O)[C@@H](Cc2ccc(Cl)cc2Cl)NC(=O)N2CCCO2)CC1)N1CCCC1` [Example 94], in that order: not above 100 nM and 0%.
On the same counts, the results for `CC[C@H](COc1cccnc1C1CCN(C(=O)[C@@H](Cc2ccc(Cl)cc2Cl)NC(=O)N2CCC=N2)CC1)N1CCCC1` [Example 95] are not above 100 nM and 0%.
For `CC[C@H](COc1cccnc1C1CCN(C(=O)[C@@H](Cc2ccc(Cl)cc2Cl)NC(=O)N2CCC(O)CC2)CC1)N1CCCC1` [Example 96], in that order: not above 100 nM and 0%.
Take `CC[C@H](COc1cccnc1C1CCN(C(=O)[C@@H](Cc2ccc(Cl)cc2Cl)NC(=O)N2C[C@H]3C[C@H]3C2)CC1)N1CCCC1` [Example 97]: in test [1], the IC50 is not above 100 nM. In addition, the Emax in test [2] was 8%.
On the same counts, the results for `CC[C@H](COc1cccnc1C1CCN(C(=O)[C@@H](Cc2ccc(Cl)cc2Cl)NC(=O)N2CC(OC)C2)CC1)N1CCCC1` [Example 98] are not above 100 nM and 13%.

One may read the IC50 as the midpoint of a concentration-inhibition curve. What is called EC50 is the concentration needed to bring the measured effect to its halfway point.
